The source of these data is US20230295201A1 (Gilead Sciences, Inc., priority 2020, published 2023).

Holding throughout (type): cell-based
For one assay, the system named is DENV2 replicon. As to the kind of experiment: DENV-2 Huh-7 Rep EC50 (replicon luminescence). As to conditions: read-out: DENV-2 Huh-7 Rep EC50. Put shortly: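 EC50 derived from luminescence dose-response, normalised to DMSO-only 0% inhibition wells, after 1.5 h with EnduRen substrate. Compounds were first exposed for 48 h at 37° C to DENV2 replicon Huh-7 cells (5,000/well).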
Background: In antiviral work, replicon cells carry a viral genome segment that copies itself.

Another assay deals with HRV16. Put plainly: HRV16 HELA EC50 (cytopathic effect in H1-HeLa cells). Summed up: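 Read-out is luminescent cell viability (CellTiter-Glo) after 96 h of infection at 33 °C, scaled between uninfected and infected-untreated wells. Before infection with titrated virus, compounds went onto H1-HeLa cells as triplicate 3-fold dilution series.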
Background: Protection from cytopathic effect is a common read-out in antiviral testing.

The next assay deals with RSV strain A2. As to the kind of experiment: RSV HEp-2 EC50 (infectious cytopathic cell protection assay). Conditions: read-out: RSV HEp-2 EC50. Summed up:
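Percent inhibition of RSV-induced cytopathic effect came from remaining cell viability (CellTiter-Glo luminescence) after 4 days at 37° C. Compounds in 3-fold serial dilutions were exposed to an infectious mix of titered A2 virus and HEp-2 cells at 50,000/ml, with 0% and 100% inhibition control standards.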

In a further assay the test system is RSV A2. As to the kind of experiment: RSV NHBE EC50 (RSV A2 antiviral assay in normal human bronchial epithelial cells). Conditions: read-out: RSV NHBE EC50.
The mark [1] stands for this setting: Dengue virus, DENV2, Huh-7, 48 h, Huh-7 replicon cells, 48 hours.
The mark [2] stands for this setting: 96 h, H1-HeLa cells, 33° C., read-out: HRV16 HELA EC50.
[3] abbreviates: human respiratory syncytial virus, HEp-2, 96 h, HEp-2 cells, RSV A2, 4 days.
Setting [4] is: human respiratory syncytial virus, NHBE, 96 h, NHBE cells, RSV A2, 4 days.
Setting [5] is: Dengue virus, DENV2, Huh-7, 48 h.
Where [6] appears, read: H1-HeLa cells, 96 h, 33° C.; read-out: HRV16 HELA EC50.
Setting [7] is: human respiratory syncytial virus, 96 h, HEp-2 cells, RSV A2, 4 days.
[8] abbreviates: human respiratory syncytial virus, 96 h, NHBE cells, RSV A2, 4 days.

Like-named read-outs stand apart in the source and are kept apart here.

A word on the EC50: it is the concentration needed to bring the measured effect to its halfway point. As to `CC(C)[C@H](N)C(=O)OCCNP(=O)(OC[C@@]1(C#N)O[C@@H](c2ccc3c(N)ncnn23)[C@H](O)[C@@H]1O)Oc1ccccc1` (stereo partly drawn) [Example 131, (2S)-2-(((((2R,3S,4R,5S)-5-(4-aminopyrrolo[2,1-f][1,2,4]triazin-7-yl)-2-cyano-3,4-dihydroxytetrahydrofuran-2-yl)methoxy)(phenoxy)phosphoryl)amino)ethyl 2-amino-3-methylbutanoate], the concentration for a half-maximal effect (EC50) in the assay with DENV2 replicon (setting [1]) is more than 50 µM; with HRV16 (setting [2]), 1.81 µM; in the assay with RSV strain A2 (setting [3]), 0.315 µM; with RSV A2 (setting [4]), 0.636 µM.

For the molecule `C=CCO[C@H](COCCCCCCCCCCCCCCCCCC)COP(=O)(O)OC[C@@]1(C#N)O[C@@H](c2ccc3c(N)ncnn23)[C@H](O)[C@@H]1O` [Example 167, (R)-2-(allyloxy)-3-(octadecyloxy)propyl (((2R,3S,4R,5S)-5-(4-aminopyrrolo[2,1-f][1,2,4]triazin-7-yl)-2-cyano-3,4-dihydroxytetrahydrofuran-2-yl)methyl) hydrogen phosphate], the EC50 was more than 100 µM in the assay with DENV2 replicon (setting [5]), 12 µM in the assay on HRV16 (setting [6]), 0.647 µM in the assay with RSV strain A2 (setting [7]) and 0.359 µM in the assay on RSV A2 (setting [8]).

On to `CCOC(=O)c1ccccc1OP(=O)(OC[C@@]1(C#N)O[C@@H](c2ccc3c(N)ncnn23)[C@H](O)[C@@H]1O)Oc1ccccc1C(=O)OCC` [Example 209, ((2R,3S,4R,5S)-5-(4-aminopyrrolo[2,1-f][1,2,4]triazin-7-yl)-2-cyano-3,4-dihydroxytetrahydrofuran-2-yl)methyl bis-2-ethylbenzoate phosphate], for which the EC50 is more than 50 µM in the assay with DENV2 replicon (setting [5]); 16.7 µM in the assay on HRV16 (96 h, read-out: HRV16 HELA EC50); 1.46 µM with RSV strain A2 (human respiratory syncytial virus, HEp-2, 96 h); more than 5 µM in the assay with RSV A2 (human respiratory syncytial virus, NHBE, 96 h).

Turning to `C[C@H](NP(=O)(OC[C@@]1(C#N)O[C@@H](c2ccc3c(N)ncnn23)[C@H](O)[C@@H]1O)Oc1ccccc1)C(=O)OC1CCNCC1` (mixture of isomers) [Example 145, (2S)-piperidin-4-yl 2-(((((2R,3S,4R,5S)-5-(4-aminopyrrolo[2,1-f][1,2,4]triazin-7-yl)-2-cyano-3,4-dihydroxytetrahydrofuran-2-yl)methoxy)(phenoxy)phosphoryl)amino)propanoate], the EC50 with DENV2 replicon (setting [1]) is more than 100 µM; with HRV16 (setting [2]) it was 46.2 µM; with RSV strain A2 (setting [3]), 2.9 µM; in the assay with RSV A2 (setting [4]), more than 5 µM.

Turning to `CC[C@H](N[P@](=O)(OC[C@@]1(C#N)O[C@@H](c2ccc3c(N)ncnn23)[C@H](O)[C@@H]1O)Oc1ccccc1)C(=O)OC1CCCCC1` [Example 105], the EC50 with DENV2 replicon (Huh-7 replicon cells, 48 hours) was more than 50 µM; in the assay on HRV16 (setting [6]), 16.9 µM; in the assay with RSV strain A2 (HEp-2 cells, RSV A2, 4 days), 3.44 µM; with RSV A2 (NHBE cells, RSV A2, 4 days) it was 2.02 µM.

On to `C[C@H](NP(=O)(OC[C@@]1(C#N)O[C@@H](c2ccc3c(N)ncnn23)[C@H](O)[C@@H]1O)Oc1ccccc1)C(=O)OC1CCCC1` (stereo partly drawn) [Example 108, (2S)-cyclopentyl 2-(((((2R,3S,4R,5S)-5-(4-aminopyrrolo[2,1-f][1,2,4]triazin-7-yl)-2-cyano-3,4-dihydroxytetrahydrofuran-2-yl)methoxy)(phenoxy)phosphoryl)amino)propanoate], for which the EC50 is 40.8 µM with DENV2 replicon (setting [1]), 0.289 µM in the assay with HRV16 (setting [2]), 0.147 µM with RSV strain A2 (setting [3]) and 0.239 µM in the assay on RSV A2 (setting [4]).

In the case of `C[C@H](NP(=O)(OC[C@@]1(C#N)O[C@@H](c2ccc3c(N)ncnn23)[C@H](O)[C@@H]1O)Oc1ccccc1)C(=O)OCC(CO)CO` (stereo partly drawn) [Example 245, 3-hydroxy-2-(hydroxymethyl)propyl ((((2R,3S,4R,5S)-5-(4-aminopyrrolo[2,1-f][1,2,4]triazin-7-yl)-2-cyano-3,4-dihydroxytetrahydrofuran-2-yl)methoxy)(phenoxy)phosphoryl)-L-alaninate], the EC50 in the assay on DENV2 replicon (setting [1]) is more than 50 µM; with HRV16 (setting [2]), 29 µM; with RSV strain A2 (setting [3]), 3.79 µM; in the assay with RSV A2 (setting [4]), more than 5 µM.

With `CCCOC(=O)C(C)NP(=O)(OCC1(C#N)OC(c2ccc3c(N)ncnn23)C(O)C1O)Oc1ccccc1` (single isomer, unassigned) [Example 47], the EC50 with DENV2 replicon (Huh-7 replicon cells, 48 hours) was determined as 9.19 µM; in the assay on HRV16 (setting [6]), 0.56 µM; in the assay on RSV strain A2 (HEp-2 cells, RSV A2, 4 days), 0.051 µM; in the assay on RSV A2 (NHBE cells, RSV A2, 4 days), 0.162 µM.

`C[C@H](NP(=O)(OC[C@@]1(C#N)O[C@@H](c2ccc3c(N)ncnn23)[C@H](O)[C@@H]1O)Oc1ccccc1)C(=O)OC1CCC1` (single isomer, unassigned) [Example 50]: the EC50 was 6.92 µM with DENV2 replicon (setting [1]), 0.464 µM with HRV16 (setting [2]), 0.044 µM with RSV strain A2 (setting [3]) and 0.498 µM in the assay on RSV A2 (setting [4]).

As for `C[C@H](NP(=O)(OC[C@@]1(C#N)O[C@@H](c2ccc3c(N)ncnn23)[C@H](O)[C@@H]1O)Oc1ccccc1)C(=O)OCCN(C)C` (stereo partly drawn) [Example 162, 2-(dimethylamino)ethyl ((((2R,3S,4R,5S)-5-(4-aminopyrrolo[2,1-f][1,2,4]triazin-7-yl)-2-cyano-3,4-dihydroxytetrahydrofuran-2-yl)methoxy)(phenoxy)phosphoryl)-L-alaninate], the half-maximal effective concentration (EC50) was 13.8 µM in the assay on DENV2 replicon (setting [1]), 12.8 µM in the assay with HRV16 (setting [2]), 6.05 µM in the assay with RSV strain A2 (setting [3]) and more than 5 µM in the assay on RSV A2 (setting [4]).

For `C[C@H](NP(=O)(N[C@@H](C)C(=O)OCc1ccccc1)OC[C@@]1(C#N)O[C@@H](c2ccc3c(N)ncnn23)[C@H](O)[C@@H]1O)C(=O)OCc1ccccc1` [Example 219], the half-maximal effective concentration (EC50) with DENV2 replicon (setting [5]) is more than 50 µM; in the assay on HRV16 (setting [6]) it was 6.04 µM; with RSV strain A2 (setting [7]) it was 1.76 µM; in the assay on RSV A2 (setting [8]), 0.178 µM.

On to `CCCCCCCCCCCCCCCCCCOC(=O)[C@H](C)NP(=O)(OC[C@@]1(C#N)O[C@@H](c2ccc3c(N)ncnn23)[C@H](O)[C@@H]1O)Oc1ccccc1` (stereo partly drawn) [Example 193, octadecyl ((((2R,3S,4R,5S)-5-(4-aminopyrrolo[2,1-f][1,2,4]triazin-7-yl)-2-cyano-3,4-dihydroxytetrahydrofuran-2-yl)methoxy)(phenoxy)phosphoryl)-L-alaninate], for which the concentration giving a half-maximal response (EC50) with DENV2 replicon (setting [1]) was more than 50 µM; in the assay with HRV16 (setting [2]) it was 0.75 µM; in the assay with RSV strain A2 (setting [3]), 0.244 µM; in the assay with RSV A2 (setting [4]), 0.469 µM.

For the molecule `C[C@H](NP(=O)(OC[C@@]1(C#N)O[C@@H](c2ccc3c(N)ncnn23)[C@H](O)[C@@H]1O)Oc1ccccc1)C(=O)OC1CCOCC1` (single isomer, unassigned) [Example 56], the concentration for a half-maximal effect (EC50) in the assay on DENV2 replicon (setting [1]) was more than 50 µM; in the assay on HRV16 (setting [2]), 7.96 µM; in the assay with RSV strain A2 (HEp-2 cells, RSV A2, 4 days) it was 4.17 µM; with RSV A2 (setting [4]) it was 2.24 µM.

Regarding `C[C@H](NP(=O)(OC[C@@]1(C#N)O[C@@H](c2ccc3c(N)ncnn23)[C@H](O)[C@@H]1O)Oc1ccccc1)C(=O)OC1CCCCCCC1` (stereo partly drawn) [Example 171, cyclooctyl ((((2R,3S,4R,5S)-5-(4-aminopyrrolo[2,1-f][1,2,4]triazin-7-yl)-2-cyano-3,4-dihydroxytetrahydrofuran-2-yl)methoxy)(phenoxy)phosphoryl)-L-alaninate], the EC50 in the assay with DENV2 replicon (setting [1]) worked out at 31.5 µM; in the assay on HRV16 (setting [2]) it was 0.582 µM; in the assay on RSV strain A2 (setting [3]) it was 0.22 µM; in the assay with RSV A2 (setting [4]), 0.375 µM.

Consider `C[C@H](NP(=O)(OC[C@@]1(C#N)O[C@@H](c2ccc3c(N)ncnn23)[C@H](O)[C@@H]1O)Oc1ccccc1)C(=O)O[C@@H]1CCNC1` (mixture of isomers) [Example 137, (2S)—(R)-pyrrolidin-3-yl 2-(((((2R,3S,4R,5S)-5-(4-aminopyrrolo[2,1-f][1,2,4]triazin-7-yl)-2-cyano-3,4-dihydroxytetrahydrofuran-2-yl)methoxy)(phenoxy)phosphoryl)amino)propanoate], for which the 50% effective concentration (EC50) with DENV2 replicon (setting [1]) was more than 50 µM; with HRV16 (setting [2]), 27 µM; in the assay with RSV strain A2 (setting [3]) it was 3.69 µM; in the assay on RSV A2 (setting [4]), more than 5 µM.
